The target in one assay is T1, human JAK1 (Homo sapiens, UniProt P23458).
T1 construct: human JAK1 (a.a. 837-1142); made in house; host or cells: insect cells (baculovirus)
Nature of the assay: In vitro JAK kinase assay (Example G, HTRF), JAK1. It is filed as biochemical. Particulars: 1 mM ATP. A general note: TR-FRET usually uses a lanthanide donor and a delayed reading to cut background.

For a further assay, the target named is T2, human JAK2 (Homo sapiens, UniProt O60674).
T2 construct: JAK2 (a.a. 828-1132); made in house; host or cells: insect cells (baculovirus)
Nature of the assay: In vitro JAK kinase assay (Example G, HTRF), JAK2. It is filed as biochemical. The following applies: ratio of IC50s JAK2 over JAK1, 1 mM ATP.

Bounds are passed on as bounds.

T1 sequence (P23458 849-1154): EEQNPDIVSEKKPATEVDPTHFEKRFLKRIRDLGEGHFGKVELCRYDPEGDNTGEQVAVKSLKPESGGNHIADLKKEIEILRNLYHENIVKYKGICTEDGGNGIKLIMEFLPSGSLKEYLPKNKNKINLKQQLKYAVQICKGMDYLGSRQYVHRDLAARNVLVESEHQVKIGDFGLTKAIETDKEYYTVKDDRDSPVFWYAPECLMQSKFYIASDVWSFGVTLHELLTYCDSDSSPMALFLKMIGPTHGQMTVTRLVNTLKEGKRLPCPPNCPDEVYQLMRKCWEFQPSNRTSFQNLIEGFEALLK
T2 sequence (O60674 828-1132): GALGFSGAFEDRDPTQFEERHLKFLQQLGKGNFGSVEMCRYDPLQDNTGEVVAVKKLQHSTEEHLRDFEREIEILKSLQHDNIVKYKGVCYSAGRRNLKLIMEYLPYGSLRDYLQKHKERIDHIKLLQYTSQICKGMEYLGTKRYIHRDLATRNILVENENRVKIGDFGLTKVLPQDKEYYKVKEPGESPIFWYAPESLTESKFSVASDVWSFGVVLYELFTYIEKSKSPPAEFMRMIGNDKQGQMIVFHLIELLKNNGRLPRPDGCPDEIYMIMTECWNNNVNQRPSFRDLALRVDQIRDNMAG

For orientation: IC50 means the concentration needed to halve the response being measured. High values mean lower potency, low ones higher potency. As to `N#CCC(C1CCN(c2nc3cccnc3o2)C1)n1cc(-c2ncnc3[nH]ccc23)cn1` (centres unmarked) [Compound 4, 3-(1-[1,3]oxazolo[5,4-b]pyridin-2-ylpyrrolidin-3-yl)-3-[4-(7H-pyrrolo[2,3-d]pyrimidin-4-yl)-1H-pyrazol-1-yl]propanenitrile], the IC50 against human JAK1 was below 10 nM. Further, the JAK2/JAK1 at human JAK2 was above 10.

(Values after US20190202840A1, “SALTS OF (S)-7-(1-(9H-PURIN-6-YLAMINO)ETHYL)-6-(3-FLUOROPHENYL)-3-METHYL-5H-THIAZOLO[3,2-A]PYRIMIDIN-5-ONE” (Incyte Corporation, priority 2015, published 2019).)
